Tests used:
HCT116 [1] = assay: efficacy (fitted maximal change in viability relative to DMSO control); higher = less cytotoxic (negative = loss of viability); conditions: 48 h
HCT116 [2] = assay: AC50 cell viability (CellTiter-Glo); higher = less potent; conditions: 48 h
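Throughout, for AC50 cell viability (CellTiter-Glo): HCT116 colorectal carcinoma cells screened at five concentrations per compound, luminescent viability scaled between DMSO wells and empty wells on each plate, curves fitted per compound.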
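Throughout, for efficacy (fitted maximal change in viability relative to DMSO control): Luminescence-based viability readout, five doses per compound, normalized against on-plate DMSO and empty-well controls, followed by dose-response curve fitting for every drug.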

SMILES	efficacy (HCT116 [1]) [%]	AC50 cell viability (HCT116 [2]) [µM]
C[C@H]1[C@H](OC(=O)CCC(=O)O)O[C@@H]2O[C@@]3(C)CC[C@H]4[C@H](C)CC[C@@H]1[C@@]24OO3 [Artesunate]	-62.6	4.17
O=C(Nc1ccc(OC(F)(F)Cl)cc1)c1cnc(N2CC[C@@H](O)C2)c(-c2ccn[nH]2)c1 [Asciminib]	-80.6	20.9
O=C(Nc1ccc([S+](=O)([O-])N2CCOCC2)cc1)c1cc(Cl)ccc1N[S+](=O)([O-])c1ccc(Cl)s1 [Ataciguat]	-76	23.5
CCCC1(CCC)CCC2(CCN(CCCN(CC)CC)C2)CC1 [Atiprimod]	-99.3	2.63
CC(C)c1c(C(=O)Nc2ccccc2)c(-c2ccccc2)c(-c2ccc(F)cc2)n1CC[C@@H](O)C[C@@H](O)CC(=O)O [Atorvastatin calcium]	-63.9	12.9
COc1ccc(CC2c3cc(OC)c(OC)cc3CC[N+]2(C)CCC(=O)OCCCCCOC(=O)CC[N+]2(C)CCc3cc(OC)c(OC)cc3C2Cc2ccc(OC)c(OC)c2)cc1OC (stereo unspecified) [Atracurium besylate]	-77.8	23.5
COc1cc(F)ccc1-c1ncnc(Nc2cccc(C[S+](C)(=N)[O-])c2)n1 (stereo unspecified) [Atuveciclib]	-68	0.468
CC[P](CC)(CC)=[Au][S][C@@H]1O[C@H](COC(C)=O)[C@@H](OC(C)=O)[C@H](OC(C)=O)[C@H]1OC(C)=O [Auranofin]	-100	2.63
CCN1CCN(C(=O)Cc2ccc(Nc3ncc(F)c(Nc4ccc(C(=O)Nc5ccccc5Cl)cc4)n3)cc2)CC1 [Aurora A Inhibitor I]	-105	7.42
CC(C)c1cc(C(C)C)c(CC(=O)N[S+](=O)([O-])Oc2c(C(C)C)cccc2C(C)C)c(C(C)C)c1 [Avasimibe]	-82.3	14.8
C=CC(=O)Nc1cccc(Oc2nc(Nc3ccc(N4CCN(C)CC4)c(F)c3)nc3[nH]ccc23)c1 [Avitinib]	-123	13.2
CNC(=O)c1ccccc1Sc1ccc2c(/C=C/c3ccccn3)n[nH]c2c1 [Axitinib]	-80.4	14.8
Cn1cnc([N+](=O)[O-])c1Sc1ncnc2nc[nH]c12 [Azathioprine]	-83.7	2.63
COc1ccc(N(C)c2nc(C)nc3ccccc23)cc1 [Azixa]	-64.3	0.00372
CCc1cc(/C(C)=N/OCc2ccc(C3CCCCC3)c(C(F)(F)F)c2)ccc1CN1CC(C(=O)O)C1 [BAF-312]	-66.2	20.9
Cc1nc2cnc3ccc(C#Cc4cccnc4)cc3c2n1-c1ccc(C(C)(C)C#N)cc1 [BAG-956]	-92.6	1.18
COc1ccc(-c2cc3nccn3c(Nc3ncccc3C(N)=O)n2)cc1OC [BAY61-3606]	-66.9	4.17
Nc1nc(-c2nn(Cc3ccccc3F)c3ncccc23)ncc1C1CC1 [BAY-41-2272]	-51.2	1.05
CC1=NN=C(C[C@@H]2\C=C(C3=CC=C(Cl)C=C3)/C4=CC=CC=C4[N]5C(=NN=C25)C)O1 [BAY-356]	-72.7	0.934
Cc1c(NC(=O)c2cc(C(N)=O)nc3cc(F)ccc23)c(C(F)(F)F)nn1Cc1ccc(C#N)cc1 [BAY-876]	-89.3	4.68
Cn1c(=O)n(-c2ccc(C(C)(C)C#N)cc2)c2c3cc(-c4cnc5ccccc5c4)ccc3ncc21 [BEZ-235]	-60.5	0.135
CC1(C)C(=O)N(c2ccc(C#N)c(C(F)(F)F)c2)C(=S)N1Cc1ccc(-c2c[nH]nn2)cc1 [BG-15a]	-68.8	20.9
C=CC(=O)N1CCC(C2CCNc3c(C(N)=O)c(-c4ccc(Oc5ccccc5)cc4)nn32)CC1 (stereo unspecified) [BGB-3111]	-62.4	18.6
O=[N+]([O-])c1cnc(Sc2nnc(O)n2-c2ccc3c(c2)OCCO3)s1 [BI-78D3]	-94.7	11.8
COC1=C(CN(C)C)C=C(OC)C(=C1)C/2=C/N(C)C(=O)C3=C2C=CN=C3 [BI-9564]	-71.5	14.8
CCCCCCOC(=O)/N=C(/N)c1ccc(NCc2nc3cc(C(=O)N(CCC(=O)OCC)c4ccccn4)ccc3n2C)cc1 [BIBR-1048]	-59.4	18.6
O=C1Nc2cc(Br)ccc2/C1=C1/Nc2ccccc2/C1=N\O [BIO]	-102	10.5
Nc1cc(C(F)(F)F)c(-c2cc(N3CCOCC3)nc(N3CCOCC3)n2)cn1 [BKM-120]	-71.8	1.66
